Test results taken from article PMC5895880 (Frontiers in Pharmacology, 2018).
Values belong to the compound of their own block, whether it stands above or below them.

What was measured:
mGluR5 [1] = target: T1, mGluR5 (Rattus norvegicus, UniProt P31424); assay: Calcium mobilization (intracellular calcium levels) in primary cultures of rat cortical astrocytes; format: cell-based; conditions: for EC50: GET73 0 (absence)
Method: The experiments have been performed on primary cultures of rat cortical astrocytes. These cells express mGlu5Rs ([Zhang et al., 2005]).
Primary cultures of cerebral cortical astrocytes were obtained from newborn rats (1 or 2 days old). Briefly, cerebral cortices were removed and dissociated by mild trypsinization at 37°C, followed by mechanical trituration to obtain single cells. Cells were suspended in the culture medium [Gibco® DMEM, 5% inactivated fetal bovine serum (Thermo-Fisher Scientific, Waltham, MA, United States), 100 IU/ml penicillin, and 100 μg/ml streptomycin (all from Sigma-Aldrich, Milan, Italy)] and then seeded in 75-cm^2 flasks at a density of 3 × 10^6 cells/flask. The cells were incubated at 37°C in a humidified atmosphere, 5% CO2/95% air. The culture medium was replaced after 24 h and again twice weekly until astrocytes were grown to form a monolayer firmly attached to the bottom of the flask (12 or 14 days after dissection). At cell confluence, flasks were vigorously shaken to separate astrocytes (which remained adherent in the bottom of the flasks) from microglia and oligodendrocytes (which floated on the supernatant) ([Tomasini et al., 2015]). Collected astrocytes were counted and then plated in poly-L-lysine at a density of 50,000 cells/well or 96-well plates black, clear bottom plates (Corning®; Sigma-Aldrich, Milan, Italy).
Subsequently 100 μl/well of the same buffer were added for 10 min. […] After placing cell culture and compound plates into the FlexStation II (Molecular Devices, Sunnyvale, CA, United States), the on-line additions were carried out in a volume of 50 μl /well and fluorescence changes were continuously measured for 2 min at 37°C.
(§1) EC50 values were calculated using non-linear regression [curve fit, log(agonist) vs. response, variable slope, four parameters]. Statistical analysis (F-test) has been performed by using GraphPad Prism 6.0 (GraphPad Software Inc., San Diego, CA, United States). Statistical differences between group means for EC50 values were also assessed by ANOVA followed by Tukey’s multiple comparisons test. Data are reported as mean ± SEM of three independent experiments. A p-value < 0.05 was considered statistically significant.

mGluR5 [2] = target: T1, mGluR5; assay: Inositol phosphate (phosphatidylinositol) turnover in rat hippocampus slices; format: cell-based; conditions: for EC50 / Effect on L-quisqualate concentration-response curve, phosphatidylinositol turnover / Effect on CHPG (10 mM)-induced increase in phosphatidylinositol turnover / Effect on glutamate concentration-response curve, phosphatidylinositol turnover: rat hippocampus slices; for EC50: read-out: EC50 of L-quisqualate, phosphatidylinositol turnover
Method: The experiments have been performed on rat hippocampus slices. This preparation expresses mGlu5Rs ([Zhang et al., 2005]; [Purgert et al., 2014]).
On the day of the experiment, the animals were euthanized, their brain promptly isolated and 400 μm thick slices (15–20 mg each) were obtained from both the left and right hippocampi, by using a McIlwain tissue Chopper fresh tissue. The tissue was then allowed to equilibrate for 20 min at room temperature in Krebs’ solution (composition in mM: NaCl 118; KC1 4.4; CaC1_2 1.2; MgS0_4 1.2; KH2P0_4 1.2; NaHC0_3 25; glucose 10) and gassed with a mixture of 95% O2 plus 5% CO2 ([Ferraro et al., 2011]).
Slices were placed in test tubes containing 0.3 ml of oxygenated Krebs solution with myo-[^3H]inositol 0.3 μM (NEN, Boston, MA, United States). […] The reaction was stopped by washing each slice in ice cold Krebs solution containing LiCl 10 mM and by plunging it in 0.94 ml of chloroform-methanol (1:2 v/v). After 10 min, 310 μl of chloroform and 310 μl of water were added and the tubes were shaken for 20 min. The separation of [^3H]inositol phosphates was performed by ion-exchange chromatography on AG 1-X8 resin, 200–400 mesh (Bio-Rad, Hercules, CA, United States), using different elution solutions. The collected IP3-containing fraction was mixed with Safety-Solve cocktail (RPI, Mount Prospect, IL, United States) and the radioactivity was measured by scintillation counting.
as §1

mGluR5 [3] = target: T1, mGluR5; assay: pCREB (Ser133) levels in primary cultures of rat cortical neurons; format: cell-based; conditions: for EC50: rat cerebral cortex neurons
Method: The experiments have been performed on primary cultures of rat cortical neurons. These cells express mGlu5Rs ([Koga et al., 2010]).
Primary cultures of cerebral cortical neurons were prepared from 1-day-old rats. Cortices free of meninges were dissociated in 0.025% (w/v) trypsin at 37°C followed by mechanical repeated gentle pipetting through wide- and narrow-bore fire-polished Pasteur pipettes in culture medium [Neurobasal medium (Gibco, Grand Island, NY, United States) supplemented with 0.1 mM glutamine (Sigma-Aldrich, Milan, Italy), 10 μg/ml gentamicin (Sigma-Aldrich, Milan, Italy) and 2% B-27® Supplement (50X), serum free (Gibco, Grand Island, NY, United States)]. Cells were counted and then plated on poly-L-lysine (5 μg/ml)-coated multiwells. Cytosine arabinoside (10 μM; Sigma-Aldrich, Milan, Italy) was added within 24 h of plating to prevent glial cell proliferation. After 8 days of in vitro incubation (days in vitro: DIV), cultures were used for experiments.
pCREB measurement was performed with the pCREB (Ser133) Assay kit (PerkinElmer Italy, Milan). Briefly, cortical neurons were seeded in 96 well tissue culture plates at a density of 4,000 cells/well and incubated at 37°C overnight. […] The lysates were transferred to a 96-well ½AreaPlate^TM for the assay. The Acceptor Mix was added for 1 h at room temperature and the Donor mix was added to wells under subdue light and incubate for 1 h at room temperature. At the end of this period, raw “AlphaScreen Signal counts” were measured by an Alpha Technology®-compatible plate reader, using standard AlphaLISA settings (excitation 680 nm, emission 615 nm).
as §1

mGluR5 [4] = target: T1, mGluR5; parameters: method as in Bradley et al., 2011; conditions: ref Bradley et al., 2011; cited from earlier work
mGluR5 [5] = target: T1, mGluR5; parameters: method as in Bradley et al., 2011; conditions: ref Bradley et al., 2011; cited from earlier work; remark: listed apart in the source
mGluR5 [6] = system: mGluR5; parameters: method as in Nickols et al., 2016; conditions: ref Nickols et al., 2016; cited from earlier work
mGluR5 [7] = system: mGluR5; parameters: method as in Nickols et al., 2016; conditions: ref Nickols et al., 2016; cited from earlier work; remark: listed apart in the source
[8] = ref Haass-Koffler et al., cited from earlier work
[9] = system: dopamine, serotonin, GABA, ionotropic glutamate receptors, dopamine and serotonin reuptake systems; parameters: method as in Loche et al., 2012; conditions: ref Loche et al., 2012; cited from earlier work
hippocampal neurons = system: hippocampal neurons; parameters: method as in Tomasini et al., 2016; conditions: hippocampal neurons exposed to 0.1 to 10 μM; ref Tomasini et al., 2016; cited from earlier work
alcohol intake = system: alcohol intake; parameters: method as in Loche et al., 2012; Ferraro et al., 2013; conditions: preclinical studies; ref Loche et al., 2012; Ferraro et al., 2013; cited from earlier work

T1 sequence (P31424 21-875 limits assumed): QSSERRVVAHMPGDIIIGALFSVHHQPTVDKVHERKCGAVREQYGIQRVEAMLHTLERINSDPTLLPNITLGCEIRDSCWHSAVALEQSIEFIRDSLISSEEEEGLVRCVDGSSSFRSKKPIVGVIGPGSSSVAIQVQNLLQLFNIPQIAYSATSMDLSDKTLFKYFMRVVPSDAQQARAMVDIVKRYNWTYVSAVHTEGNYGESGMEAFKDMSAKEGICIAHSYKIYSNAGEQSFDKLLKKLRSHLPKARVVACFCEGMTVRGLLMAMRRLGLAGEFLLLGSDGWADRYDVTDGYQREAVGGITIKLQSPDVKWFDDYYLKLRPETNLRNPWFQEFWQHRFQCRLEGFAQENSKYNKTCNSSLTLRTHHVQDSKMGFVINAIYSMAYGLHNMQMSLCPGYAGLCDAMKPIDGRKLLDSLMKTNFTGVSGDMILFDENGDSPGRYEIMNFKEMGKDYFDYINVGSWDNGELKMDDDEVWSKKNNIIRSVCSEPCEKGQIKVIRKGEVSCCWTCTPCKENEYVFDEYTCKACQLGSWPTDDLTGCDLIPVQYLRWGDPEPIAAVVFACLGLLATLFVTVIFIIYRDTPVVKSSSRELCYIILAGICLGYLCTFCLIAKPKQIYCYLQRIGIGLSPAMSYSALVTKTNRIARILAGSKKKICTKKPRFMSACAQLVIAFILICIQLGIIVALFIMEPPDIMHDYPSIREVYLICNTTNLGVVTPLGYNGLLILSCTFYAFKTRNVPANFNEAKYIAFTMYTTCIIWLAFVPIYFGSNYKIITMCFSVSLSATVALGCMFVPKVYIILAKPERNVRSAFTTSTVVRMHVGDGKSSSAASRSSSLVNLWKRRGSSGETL

Structure (SMILES): N[C@@H](Cn1oc(=O)[nH]c1=O)C(=O)O [L-quisqualate, (L)-(+)-α-Amino-3,5-dioxo-1,2,4-oxadiazolidine-2-propanoic acid]
EC50 (mGluR5 [1]; read-out: EC50 of L-quisqualate, intracellular calcium levels): 0.0031 ± 0.00036 µM
EC50 (mGluR5 [2]; GET73 0 (absence)): 40 ± 2.37 µM
EC50 (mGluR5 [2]; in the presence of GET73 0.1 nM): 33 ± 1.57 µM
EC50 (mGluR5 [2]; in the presence of GET73 1 nM): 40 ± 1.44 µM
EC50 (mGluR5 [2]; in the presence of GET73 10 nM): 110 ± 9.5 µM
EC50 (mGluR5 [2]; in the presence of GET73 100 nM): 200 ± 11.1 µM
EC50 (mGluR5 [2]; in the presence of GET73 1 μM): 320 ± 15.7 µM
EC50 (mGluR5 [2]; in the presence of GET73 10 μM): 200 ± 12.6 µM
EC50 (mGluR5 [3]; GET73 0 (absence), read-out: EC50 of L-quisqualate, pCREB levels): 0.0088 ± 0.00068 µM
EC50 (mGluR5 [3]; in the presence of GET73 0.1 nM, read-out: EC50 of L-quisqualate, pCREB levels): 0.009 ± 0.00091 µM
EC50 (mGluR5 [3]; in the presence of GET73 1 nM, read-out: EC50 of L-quisqualate, pCREB levels): 0.0074 ± 0.00066 µM
EC50 (mGluR5 [3]; in the presence of GET73 10 nM, read-out: EC50 of L-quisqualate, pCREB levels): 0.0085 ± 0.00052 µM
EC50 (mGluR5 [3]; in the presence of GET73 100 nM, read-out: EC50 of L-quisqualate, pCREB levels): 0.011 ± 0.00096 µM
EC50 (mGluR5 [3]; in the presence of GET73 1 μM, read-out: EC50 of L-quisqualate, pCREB levels): 0.022 ± 0.00172 µM
EC50 (mGluR5 [3]; in the presence of GET73 10 μM, read-out: EC50 of L-quisqualate, pCREB levels): 0.016 ± 0.00044 µM

Structure (SMILES): COc1cccc(C#Cc2ccc(C)cn2)c1 [M-5MPEP]
Inhibition of agonist-stimulated [3H]IP accumulation (mGluR5 [4]): partially inhibiting
Inhibition of agonist-stimulated Ca++ oscillations (mGluR5 [5]): completely blocking

Structure (SMILES): CCN(CC)C(=O)c1ccc(C#Cc2cccc(F)c2)cn1 [VU0477573]
Inhibition of agonist-mediated intracellular Ca++ release (mGluR5 [6]): only partially inhibited
Inhibition of ERK1/2 phosphorylation (mGluR5 [7]): fully inhibited

Effect on CHPG concentration-response curve, intracellular calcium (mGluR5 [1]; GET73 0.1 nM–10 μM): significant rightward shift
Effect on L-quisqualate concentration-response curve, intracellular calcium (mGluR5 [1]; GET73 0.1 nM–10 μM): failed to significantly modify
Effect on glutamate concentration-response curve, intracellular calcium (mGluR5 [1]; GET73 10 nM–10 μM): significant rightward shift
Effect on glutamate concentration-response curve, intracellular calcium (mGluR5 [1]; GET73 0.1 and 1 nM): ineffective
Agonistic effect on intracellular calcium levels (calcium transient) (mGluR5 [1]; GET73 alone, 0.1 nM–10 μM): ineffective
Effect on L-quisqualate concentration-response curve, phosphatidylinositol turnover (mGluR5 [2]; GET73 10 nM–10 μM): significant rightward shift
Effect on CHPG (10 mM)-induced increase in phosphatidylinositol turnover (mGluR5 [2]; GET73 100 nM, 1 μM and 10 μM): significant reduction
Effect on glutamate concentration-response curve, phosphatidylinositol turnover (mGluR5 [2]; GET73 100 nM–10 μM): significant rightward shift
Effect on L-quisqualate concentration-response curve, phosphatidylinositol turnover (mGluR5 [2]; GET73 0.1 and 1 nM): ineffective
Effect on glutamate concentration-response curve, phosphatidylinositol turnover (mGluR5 [2]; GET73 0.1 and 1 nM): ineffective
Effect on CHPG (10 mM)-induced increase in phosphatidylinositol turnover (mGluR5 [2]; GET73 0.1–10 nM): ineffective
Agonistic effect on phosphatidylinositol turnover (mGluR5 [2]; GET73 alone, 0.1 nM–100 μM, rat hippocampal slices): failed to modify
Effect on glutamate concentration-response curve, pCREB (mGluR5 [3]; GET73 10 nM–10 μM, rat cortical neurons): significant rightward shift
Effect on CHPG concentration-response curve, pCREB (mGluR5 [3]; GET73 100 nM–10 μM, rat cortical neurons): significant rightward shift
Effect on glutamate concentration-response curve, pCREB (mGluR5 [3]; GET73 0.1 and 1 nM, rat cortical neurons): ineffective
Effect on CHPG concentration-response curve, pCREB (mGluR5 [3]; GET73 0.1–10 nM, rat cortical neurons): ineffective
Effect on L-quisqualate concentration-response curve, pCREB (mGluR5 [3]; GET73 0.1–100 nM, rat cortical neurons): ineffective
Effect on L-quisqualate concentration-response curve, pCREB (mGluR5 [3]; GET73 1 and 10 μM, rat cortical neurons): significant rightward shift
Agonistic effect on pCREB levels (mGluR5 [3]; GET73 alone, 0.1 nM–10 μM, rat cortical neurons): ineffective
Structure (SMILES): COCCCC(=O)NCc1ccc(C(F)(F)F)cc1 [GET73, N-[4-(trifluoromethyl)benzyl]-4-methoxybutyramide]
Safety and tolerability ([8]; Phase 1 clinical studies, healthy volunteers and alcohol-dependent patients, 2017a,b): safe and well-tolerated
CNS side effects ([8]; two Phase I clinical trials in healthy volunteers and ongoing Phase 1b/2a study in alcohol dependent subjects, 2017a): did not induce any CNS side effects
Affinity for a series of biological targets [9]: did not show affinity
Neurotoxicity (hippocampal neurons): no signs of neurotoxicity
Alcohol intake (alcohol intake): reduce alcohol intake

EC50 (mGluR5 [1]; read-out: EC50 of CHPG, intracellular calcium levels): 1300 ± 90 µM
Phosphatidylinositol turnover (mGluR5 [2]; CHPG at the higher concentration tested (10 mM), rat hippocampal slices, p < 0.05): 127 ± 4 % of basal levels
EC50 (mGluR5 [3]; GET73 0 (absence), read-out: EC50 of CHPG, pCREB levels): 1000 ± 90 µM
EC50 (mGluR5 [3]; in the presence of GET73 0.1 nM, read-out: EC50 of CHPG, pCREB levels): 1000 ± 80 µM
EC50 (mGluR5 [3]; in the presence of GET73 1 nM, read-out: EC50 of CHPG, pCREB levels): 900 ± 40 µM
EC50 (mGluR5 [3]; in the presence of GET73 10 nM, read-out: EC50 of CHPG, pCREB levels): 1400 ± 120 µM
EC50 (mGluR5 [3]; in the presence of GET73 100 nM, read-out: EC50 of CHPG, pCREB levels): 5000 ± 290 µM
Structure (SMILES): NC(C(=O)O)c1cc(O)ccc1Cl (racemic) [CHPG, (RS)-2-Chloro-5-hydroxyphenylglycine]
